Among the test systems are A498 renal; BT-549 breast; HT29 colon; NCI-H522 lung; OVCAR-8 ovarian; SN12C renal; TK-10 renal; UACC-62 melanoma.
Assay in all cases: NCI tumour cell line growth inhibition, 48 h

Molecules are shown by their SMILES.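 Interpolation was linear, between the two tested concentrations surrounding the appropriate level; five concentrations were tested over 48 hours in 96-well plates. TGI marks complete inhibition of growth.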

Consider `O=C(O)CC(NC(=O)/C(=C/c1ccccc1O)NC(=O)c1ccccc1)C(=O)O` (stereo not drawn), for which the TGI in the test with A498 renal, with BT-549 breast, in the test with HT29 colon, in the test with NCI-H522 lung, in the test with OVCAR-8 ovarian and in the test on SN12C renal was > 100 µM in each case. Also, the TGI in the test on TK-10 renal and with UACC-62 melanoma was > 100 µM in each case.

For `CC1C(c2ccc3c(c2)OCO3)c2cc3c(cc2OC1N1CCOCC1)OCO3` (stereo not drawn), the TGI with A498 renal is 65.6 µM; with BT-549 breast, > 100 µM; with HT29 colon, > 85 µM; in the test on NCI-H522 lung, 31.1 µM; in the test with OVCAR-8 ovarian it was > 100 µM; with SN12C renal, > 100 µM. Further, the TGI in the test on TK-10 renal was > 100 µM; in the test on UACC-62 melanoma, 69.5 µM.

In the case of `COC(=O)c1cc2c(cc1CC(Cc1ccc3c(c1)CCC3)C(=O)OC)CCC2` (stereo not drawn), the TGI with A498 renal, in the test with BT-549 breast, in the test on HT29 colon, with NCI-H522 lung, in the test with OVCAR-8 ovarian and in the test on SN12C renal was > 100 µM each time. In addition, the TGI in the test with TK-10 renal and in the test on UACC-62 melanoma was > 100 µM throughout.

Consider `COc1ccc(N=Nc2c3c(c(O)c4ccccc24)CCC(C)(C)O3)cc1`, for which the TGI was 32 µM in the test with A498 renal; 34.6 µM with BT-549 breast; 27.6 µM in the test with HT29 colon; 33.5 µM with NCI-H522 lung; > 100 µM in the test with OVCAR-8 ovarian; 38.7 µM in the test with SN12C renal. Also, the TGI in the test on TK-10 renal turned out to be 65.8 µM; in the test with UACC-62 melanoma it was 28.6 µM.

On to `N#CC(=N)c1ncn(-c2ccccc2N)c1N`, for which the TGI in the test with A498 renal, with BT-549 breast, with HT29 colon, with NCI-H522 lung, with OVCAR-8 ovarian and with SN12C renal was > 100 µM each time. The TGI in the test with TK-10 renal and in the test with UACC-62 melanoma was > 100 µM in each case.

With `COc1cc(OCc2ccc3nc(OC)c(OC)nc3c2)cc(OC)c1OC`, the TGI was > 10 µM in the test with A498 renal; > 6.32 µM in the test with BT-549 breast; > 10 µM in the test on HT29 colon; > 10 µM in the test on NCI-H522 lung; > 10 µM in the test with OVCAR-8 ovarian; > 10 µM in the test with SN12C renal. Besides, the TGI in the test with TK-10 renal and in the test on UACC-62 melanoma was > 10 µM in each case.

For `O=C1CC(Sc2nc3ccc(I)cc3c(=O)n2Cc2ccccc2)C(=O)NN1` (stereo not drawn), the TGI amounted to 29.7 µM in the test on A498 renal; 29.3 µM with BT-549 breast; 38.6 µM in the test on HT29 colon; 4.26 µM in the test with NCI-H522 lung; 28.4 µM in the test with OVCAR-8 ovarian; 27.6 µM in the test on SN12C renal. For the same molecule, the TGI was 30.5 µM in the test with TK-10 renal and 29.3 µM with UACC-62 melanoma.

With `Clc1ccc(Cl)c(SCCCN2CCNCC2)c1`, the TGI was found to be 28.2 µM in the test on A498 renal; 33.6 µM in the test on BT-549 breast; 37.7 µM in the test on HT29 colon; 34 µM in the test with NCI-H522 lung; 46 µM in the test on OVCAR-8 ovarian; 37.8 µM with SN12C renal. Also, the values for the TGI with TK-10 renal and in the test with UACC-62 melanoma were 31.4 µM and 7.85 µM, respectively.

Turning to `COC(=O)c1cc(C)ccc1CC(Cc1ccc(C)cc1)C(=O)OC` (stereo not drawn), the TGI in the test with A498 renal was > 100 µM; in the test with BT-549 breast, > 100 µM; in the test with HT29 colon it was 80.4 µM; with NCI-H522 lung it was > 100 µM; in the test on OVCAR-8 ovarian it was > 100 µM; in the test with SN12C renal, > 100 µM. Also, the TGI with TK-10 renal and with UACC-62 melanoma was > 100 µM throughout.

Regarding `Cc1cc2nc(-c3cc(C(C)(C)C)c(O)c(C(C)(C)C)c3)[nH]c2cc1C`, the TGI with A498 renal is > 100 µM; in the test on BT-549 breast, > 100 µM; with HT29 colon it was > 100 µM; in the test with NCI-H522 lung, > 100 µM; in the test on OVCAR-8 ovarian, > 52.8 µM; in the test on SN12C renal it was > 100 µM. Also, the TGI with TK-10 renal is > 100 µM; in the test with UACC-62 melanoma, 2.74 µM.

In the case of `COC(=O)C1OC(O[C@H]2CC[C@]3(C)[C@H]4CC=C5[C@@H]6CC(C)(C)CC[C@]6(C(=O)OC6OCC(O)C(O)C6OC6OC(C)C(OC7OCC(OC8OCC(O)C(O)C8O)C(O)C7O)C(O)C6O)[C@H](O)C[C@@]5(C)[C@]4(C)CC[C@H]3C2(C)C)C(O)C(O)C1O` (stereo partly drawn), the TGI in the test on A498 renal amounted to 3.94 µM; in the test on BT-549 breast, 4.4 µM; with HT29 colon, 8.9 µM; with NCI-H522 lung, 7.76 µM; in the test with OVCAR-8 ovarian, 13.2 µM; with SN12C renal, 3.36 µM. For the same molecule, the TGI with TK-10 renal is 22.5 µM; with UACC-62 melanoma it was 10.6 µM.

As to `Cc1cc2c(nn1)-c1ccccc1C2=O`, the TGI with A498 renal, in the test with BT-549 breast, in the test with HT29 colon, in the test on NCI-H522 lung, in the test with OVCAR-8 ovarian and in the test with SN12C renal was > 10 µM each time. In addition, the TGI in the test on TK-10 renal and in the test on UACC-62 melanoma was > 10 µM each time.

As for `CN1COCc2cc3cc4c(cc3nc21)OCCO4`, the TGI with A498 renal, in the test on BT-549 breast, in the test on HT29 colon, with NCI-H522 lung, with OVCAR-8 ovarian and in the test with SN12C renal was > 100 µM in each case. The TGI with TK-10 renal and in the test with UACC-62 melanoma was > 100 µM in each case.

On to `COC(=O)C1=C(C)NC(C)=C([N+](=O)[O-])C1c1cccc(N=O)c1` (stereo not drawn), for which the TGI was 58.4 µM in the test with A498 renal; 30.7 µM in the test on BT-549 breast; 33.1 µM with HT29 colon; 5.34 µM in the test on NCI-H522 lung; 32.1 µM in the test with OVCAR-8 ovarian; 34.5 µM in the test on SN12C renal. The figures for the TGI with TK-10 renal and in the test with UACC-62 melanoma were 25.4 µM and 29 µM, respectively.

Consider `O=C1CS(=O)C23c4cc5ccccc5n4CCC2CCCN13` (stereo not drawn), for which the TGI with A498 renal, with BT-549 breast, in the test with HT29 colon, with NCI-H522 lung, with OVCAR-8 ovarian and in the test on SN12C renal was > 100 µM in each case. Further, the TGI in the test with TK-10 renal and in the test with UACC-62 melanoma was > 100 µM each time.

As to `COC(=O)C1(Cc2ccc3c(c2)CCC3)Cc2ccccc2C1=O` (stereo not drawn), the TGI is 57.9 µM in the test on A498 renal; 41.7 µM with BT-549 breast; 30.3 µM in the test on HT29 colon; 31.5 µM in the test on NCI-H522 lung; > 100 µM with OVCAR-8 ovarian; > 100 µM in the test with SN12C renal. Moreover, the TGI in the test with TK-10 renal was 55.9 µM; in the test on UACC-62 melanoma, > 100 µM.

The values are drawn from PubChem BioAssay (NCI).
